Results on one compound are retold here after US20260373132A1, “PERK INHIBITORHC-5404 IN COMBINATION WITH ANTI-PD-1 ANTIBODY AND/OR AN ANTIANGIOGENETIC AGENT FOR USE IN THE TREATMENT OF CANCER” (HIBERCELL, INC., priority 2022, published 2026).

Test [1] deals with MFE280 endometrial cancer model. Kind of test: MFE280 endometrial xenograft tumor growth. It is filed as in vivo, mouse. The conditions noted are these: single agent: HC-5404 30 mg/kg PO BID or lenvatinib 10 mg/kg QD (FIG. 77). As to the method:
Xenograft RCC models were generated as follows: Female NOD.SCID mice (6-8 weeks of age) were injected with A498 RCC cells (5×10^6 cells/mouse), female Balb/c Nude mice (6-8 weeks old) were implanted with 786-O RCC cells (5×10^6 cells/mouse) or Caki-1 RCC cells (6×10^6 cells/mouse), female Athymic Nude-Foxn1nu mice (7-8 weeks of age) were implanted with MFE280 endometrial cells (10×10^6 cells/mouse). Cells were implanted into the flank of animals.
Once tumor tumors reached volume of typically 150-250 mm^3, animals were randomized by tumor volume into the treatment groups of 8 or 10 animals per group. In the single animal trial with RCC PDX models, only one animal per group was enrolled.
Body weight and tumor volume were measured twice weekly. Tumor volume was calculated using the formula [tumor volume (mm^3)=π/6×length×width^2] and plotted as means+SEM. The percentage of tumor growth inhibition was calculated at the end of the study using the formula: 100−[1−(ΔT/ΔC)], if ΔT>0, ΔT, mean tumor volume of the drug-treated group on the observation day of the study—mean tumor volume of the drug-treated group on initial day of dosing; ΔC, mean tumor volume of the control group on the observation day of the study—mean tumor volume of the control group on initial day of dosing. Regression was calculated using the formula=100×ΔT/Tinitial, if ΔT<0. […]

The next test deals with 468 unique kinases. Put plainly: KINOMEScan biochemical panel assay. It is filed as binding, human. Here is the method: The selectivity of HC-5404 against the broader kinome was then evaluated using a KINOMEScan biochemical panel assay that measured binding against 468 unique kinases, including 403 wild-type human kinases and 59 mutant isoforms.
The test system of test [2] is human cord blood-derived MDSCs / CD3 T cells. Put plainly: human T cell suppression assay with human cord blood-derived MDSCs. The conditions noted are these: 500 or 750 nM (FIG. 10A, 10C). It is filed as cell-based. Here is the method: Human MDSC Preparation: Fresh cord blood was obtained from NDRI (Protocol ID #RCHA4 01). Mononuclear cells were enriched from cord blood by Lymphoprep density gradient centrifugation, followed by CD34+ cell isolation using EasySep Human Cord Blood CD34 Positive selection Kit II, and the enriched CD34+ cells were cultured in a 48-well plate (BD Falcon, Bedford, MA) at 1×10^5 cells/well/ml of IMDM complete medium (IMDM supplemented with 10% FBS, 1× penicillin-streptomycin and 2 mM L-glutamax). 100 ng/ml human GM-CSF, 100 ng/ml human G-CSF and 50 ng/ml human SCF were added to the IMDM complete medium and cells were expanded for 13-14 days in a 37 °C, 5% CO2 humidified incubator and medium was refreshed on day 7. MDSC differentiation was induced by culturing the expanded CD34+ cells in a 24 well plate at 0.1-0.15×10^6 cells/well in 2 ml of IMDM complete medium supplemented with 100 ng/ml human GM-CSF, 50 ng/mL G-CSF and 30 ng/ml IL-6 for additional 6-7 days with medium changed on day 3. […]
Human T cell Suppression Assay. […] T cell proliferation was analyzed by flow cytometry. […] The labeled cells were analyzed on a BD Fortessa cytometer and data was analyzed by FlowJo. […] Data were analyzed using one-way ANOVA with multiple comparison corrected with Dunnett test. *P<0.05; **P<0.01; ***P<0.005, ****P<0.0001 (FIGS. 10A, 10B, and 10C).

In test [3] the test system is ASNS and PSAT1 in MFE280 tumors. Put plainly: ASNS and PSAT1 in MFE280 tumors. As to conditions: 7 days, HC-5404 30 mpk BID. It is filed as in vivo, mouse.
For another test, the system named is pPERK in A498 tumors. Put plainly: pPERK in A498 tumor xenografts. The format is in vivo, mouse. Here is the method:
Samples were put in 500 μL of Novex lysis buffer consisting of 2× Novex Tris-Glycine SDS sample buffer (ThermoFisher LC2676), 1× Phosphatase Inhibitor Cocktail III (Sigma P0044), 1× PhosphataseArrest I (Gbioscience 113P-D), 1×2-mercaptoethanol (Gibco 21985023), 1× Benzonase (EMD Millipore Corp 70746-3), and 1× Protease inhibitor cocktail tablet (Roche/Sigma 11836170001). Samples were homogenized with the Polytron and heated for 10 min at 95 °C. They were then centrifuged at max speed for 10 min and the supernatant was transferred. Protein concentrations of samples were measured using the Pierce 660 nm Protein assay kit (Thermo Scientific 22660) according to the manufacturer's instructions.
Western Blot analysis was performed on the SimpleWestern high-throughput protein analysis platform (ProteinSimple 004-650) according to manufacturer's protocol using a 12-230 kDA Separation Module (ProteinSimple SM-W004) and Total Protein Detection Module (ProteinSimple DM-TP01). Antibodies used were: (Add info for other antibodies used) pPERK (Lilly; 1:50) and PERK (Cell Signaling Technology 5683; 1:200). All protein analytes were normalized to total protein loaded on capillary. […]

Molecules are shown by their SMILES.

In the case of `Cc1cc(NC(=O)[C@H](O)c2cc(F)cc(F)c2)ccc1-c1cnc(N)c(C(=O)NC(C)C)c1` [HC-5404, (R)-2-amino-5-(4-(2-(3,5-difluorophenyl)-2-hydroxyacetamido)-2-methylphenyl)-N-isopropylnicotinamide], the TGI % in test [1] is recorded as ~ 37%. Further, in the test on 468 unique kinases (100 nM, PERK not in panel), the “interactions in kinome panel” value is listed as “no interactions observed”. Besides, in the test with 468 unique kinases (10,000 nM), the “number of kinases inhibited >65%” value was found to be 9 kinases. Moreover, the “inhibition of T-cells by MDSCs” value in test [2] is “reduced inhibition of T-cells”. For the same compound, in test [3] (lenvatinib 10 mpk QD (FIG. 79)), the ASNS entry is “induces ASNS”. Further, the PSAT1 result in test [3] (lenvatinib 10 mpk QD (FIG. 80)) is recorded as “induces”. The “pPERK expression in A498” value with pPERK in A498 tumors (30 mg/kg PO BID, seven days (FIG. 30)) was “strongly inhibited pPERK expression”. Also, in the test on pPERK in A498 tumors (DC-101 study, 4 days of treatment (FIG. 37)), the “pPERK levels in A498” value was “inhibited the pPERK signal”.
